Here are results for 2 compounds from article PMC11596062, “Substrate Specificity of ABCB Transporters Predicted by Docking Simulations Can Be Confirmed by Experimental Tests” (Molecules, 2024).

One test relates to T1, OfABCB2.
T1 construct: full-length cds (3984 bp, 1327 aa), baculovirus pFBD in Sf9 cells, isolated cell membranes; no tag mentioned
In words: vanadate-sensitive ATPase assay, phosphate release, Sf9 membranes. Type of test: biochemical, Oncopeltus fasciatus. The settings on record: substrate-stimulated ATPase; difference without / with 500 µM vanadate; 0-800 µM in 2% DMSO; 37 °C; read-out: Km Values [μM] ± SE / OfABCB2. The text has this:
vanadate-sensitive ATPase assay, phosphate release, Sf9 membranes on OfABCB2

Another test has as its system OfABCB1. The settings on record: read-out: Km Values [μM] ± SE / OfABCB1; substrate-stimulated ATPase; difference without / with 500 µM vanadate; 0-800 µM in 2% DMSO; 37 °C. The source says:
vanadate-sensitive ATPase assay, phosphate release, Sf9 membranes on OfABCB1

As for `C[C@@H]1O[C@@H](O[C@H]2C[C@@H](O)[C@]3(CO)[C@H]4[C@H](O)C[C@]5(C)[C@@H](C6=CC(=O)OC6)CC[C@]5(O)[C@@H]4CC[C@]3(O)C2)[C@H](O)[C@H](O)[C@H]1O` [ouabain], the Km with OfABCB2 is 7.05 ± 2.61 µM.

Regarding `C[C@H]1O[C@@H](O[C@H]2[C@@H](O)C[C@H](O[C@H]3[C@@H](O)C[C@H](O[C@H]4CC[C@@]5(C)[C@H](CC[C@@H]6[C@@H]5C[C@@H](O)[C@]5(C)[C@@H](C7=CC(=O)OC7)CC[C@]65O)C4)O[C@@H]3C)O[C@@H]2C)C[C@H](O)[C@@H]1O` [digoxin], the Km with OfABCB1 was found to be 33.7 ± 11.4 µM; in the test with OfABCB2, 9.33 ± 2.43 µM.
